Results on 19 compounds are retold here after US12344610B2, “APOL1 inhibitors and methods of use” (Maze Therapeutics, Inc., priority 2022, dated 2025).

By EC50 is commonly meant the concentration needed to bring the measured effect to its halfway point.

Holding throughout (type): cell-based
Experiment [1] concerns HEK293 clonal cell line overexpressing APOL1 G1. The experiment is described as follows: APOL1 G1 HEK293 cell rescue assay (Example B3). Particulars: geometric mean of at least 2 runs, † = single run, ¥ = concentration at 50% rescue estimated (no sigmoidal curve). The procedure, abridged:
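Rescue of cell death caused by APOL1 G1 overexpression was measured in a clonal HEK293 line. Compounds were tested in duplicate on one plate, and EC50s were geometric means across at least two runs on different days. Some values are estimated 50%-rescue concentrations where curve fitting failed.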

Experiment [2] deals with Trypanosoma brucei Lister 427 VSG221 with APOL1 G1 recombinant protein. The experiment is described as follows: APOL1 G1 trypanosome cell rescue assay (Example B5). Particulars: geometric mean of at least 2 assay runs, † = single assay run. The gist of the method: (§1)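 Recombinant APOL1 protein, dispensed from a 2 μg/mL stock, and 250 T. brucei per well were co-incubated with test compound (0.4% DMSO) for 20 h. Viability: CellTiter-Glo luminescence.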

Experiment [3] has as its system Trypanosoma brucei Lister 427 VSG221 with APOL1 G2 recombinant protein. The experiment is described as follows: APOL1 G2 trypanosome cell rescue assay (Example B5). Particulars: geometric mean of at least 2 assay runs, † = single assay run. The gist of the method: as §1
Setting [4] is: HEK293 clonal line overexpressing APOL1 G1.
Where [5] appears, read: read-out: APOL1 G1 Trypanosome Rescue EC50, Trypanosoma brucei Lister 427 VSG221 with APOL1 G1 recombinant protein, 20 hours, CellTiter-Glo.
[6] abbreviates: read-out: APOL1 G2 Trypanosome Rescue EC50, Trypanosoma brucei Lister 427 VSG221 with APOL1 G2 recombinant protein, 20 hours, CellTiter-Glo.
The mark [7] stands for this setting: Homo sapiens, HEK293, HEK293 clonal line overexpressing APOL1 G1.
The mark [8] stands for this setting: Trypanosoma brucei, 20 h, read-out: APOL1 G1 Trypanosome Rescue EC50, Trypanosoma brucei Lister 427 VSG221 with APOL1 G1 recombinant protein, 20 hours, CellTiter-Glo.
The mark [9] stands for this setting: Trypanosoma brucei, 20 h, read-out: APOL1 G2 Trypanosome Rescue EC50, Trypanosoma brucei Lister 427 VSG221 with APOL1 G2 recombinant protein, 20 hours, CellTiter-Glo.

Molecules are shown by their SMILES. Where two headings read alike, the source gives them in different places.

`CC(O)c1ncc(OCCN2CCC3(CC2)C(=O)Nc2ccc(C(F)F)cc23)cc1C(F)(F)F` (single isomer, unassigned) [Compound 288, 5-(difluoromethyl)-1′-[2-({6-[(1R) or (1S)-1-hydroxyethyl]-5-(trifluoromethyl)pyridin-3-yl}oxy)ethyl]-1,2-dihydrospiro[indole-3,4′-piperidin]-2-one]: the figures for the EC50 in experiment [1] (setting [4]), in experiment [2] (setting [5]) and in experiment [3] (setting [6]) were 62.1 nM, 36.1 nM and 9.75 nM, respectively.
As to `CN(C)C(=O)C1(S(=O)(=O)c2ccc(OCCN3CCC4(CC3)C(=O)Nc3ccc(Cl)cc34)cc2)CC1` [Compound 227, 1-[4-(2-{5-chloro-2-oxo-1,2-dihydrospiro[indole-3,4′-piperidin]-1′-yl}ethoxy)benzenesulfonyl]-N,N-dimethylcyclopropane-1-carboxamide], the EC50 is 210 nM in experiment [1] (setting [7]), 248 nM in experiment [2] (setting [8]) and 61.6 nM in experiment [3] (setting [9]).
Consider `CC(O)c1ncc(OCCN2CCC3(CC2)C(=O)Nc2ccc(Cl)cc23)cn1` (single isomer, unassigned) [Compound 286, 5-chloro-1′-[2-({2-[(1R) or (1S)-1-hydroxyethyl]pyrimidin-5-yl}oxy)ethyl]-1,2-dihydrospiro[indole-3,4′-piperidin]-2-one], for which the EC50 in experiment [1] (setting [4]) was 272 nM; in experiment [2] (setting [5]), 629 nM; in experiment [3] (setting [6]) it was 175 nM.
Consider `O=C1Nc2ccc(Cl)cc2C12CCN(CCOc1ccc(S(=O)(=O)C3(C(=O)N4CCC4)CC3)cc1)CC2` [Compound 228, 1′-[2-(4-{[1-(azetidine-1-carbonyl)cyclopropyl]sulfonyl}phenoxy)ethyl]-5-chloro-1,2-dihydrospiro[indole-3,4′-piperidin]-2-one], for which the values for the EC50 in experiment [1] (setting [7]), in experiment [2] (setting [8]) and in experiment [3] (setting [9]) were 426 nM, 363 nM and 86.2 nM, respectively.
The matching figures for `C[C@@H](COc1ccc(S(C)(=O)=O)c(C(F)F)c1)N1CCC2(CC1)C(=O)Nc1ccc(Cl)cc12` (single isomer, unassigned) [Compound 210]: 153 nM, 71.1 nM and 21.8 nM.
The matching figures for `O=C1Nc2ccc(Cl)cc2C12CCN(CCOc1ccc(S(=O)(=O)CCO)cc1)CC2` [Compound 198, 5-chloro-1′-{2-[4-(2-hydroxyethanesulfonyl)phenoxy)ethyl}-1,2-dihydrospiro[indole-3,4′-piperidin]-2-one]: 203 nM, 142 nM and 41.9 nM.
On to `CS(=O)(=O)c1ccc(OCCN2CCC3(CC2)C(=O)Nc2ccc(C#N)cc23)cc1C(F)CF` (single isomer, unassigned) [Compound 221, 1′-(2-{3-[(1S or 1R)-1,2-difluoroethyl]-4-methanesulfonyl-phenoxy}ethyl)-2-oxo-1,2-dihydrospiro [indole-3,4′-piperidine]-5-carbonitrile], for which the values for the EC50 in experiment [1] (setting [4]), in experiment [2] (setting [8]) and in experiment [3] (setting [9]) were 217 nM, 129 nM and 29.5 nM, respectively.
As to `C[C@]1(O)C[C@H](N2C(=O)CCc3cc(OCCN4CCC5(CC4)C(=O)Nc4ccc(Cl)cc45)cnc32)C1` (single isomer, unassigned) [Compound 307, 5-chloro-1′-[2-({7-oxo-8-[(trans)-3-hydroxy-3-methylcyclobutyl]-5,6,7,8-tetrahydro-1,8-naphthyridin-3-yl}oxy)ethyl]-1,2-dihydrospiro[indole-3,4′-piperidin]-2-one], the half-maximal effective concentration (EC50) in experiment [1] (setting [7]) is 70 nM; in experiment [2] (setting [8]), 79.7 nM; in experiment [3] (setting [9]), 27.2 nM.
For `CS(=O)(=O)C1(c2ccc(OCCN3CCC4(CC3)C(=O)Nc3ccc(Cl)cc34)cc2)COC1` [Compound 195, 5-chloro-1′-{2-[4-(3-methanesulfonyloxetan-3-yl)phenoxy]ethyl}-1,2-dihydrospiro[indole-3,4′-piperidin]-2-one] the same measures were 72 nM, 74.4 nM and 19.8 nM.
The matching figures for `CNC(=O)C1(S(=O)(=O)c2ccc(OCCN3CCC4(CC3)C(=O)Nc3ccc(Cl)cc34)cc2)CC1` [Compound 226, 1-[4-(2-{5-chloro-2-oxo-1,2-dihydrospiro[indole-3,4′-piperidin]-1′-yl}ethoxy)benzenesulfonyl]-N-methylcyclopropane-1-carboxamide]: 138 nM, 112 nM and 36 nM.
With `CC(O)c1ncc(OCCN2CCC3(CC2)C(=O)Nc2ccc(Cl)cc23)cc1C(F)(F)F` (single isomer, unassigned) [Compound 292, 5-chloro-1′-[2-({6-[(1S) or (1R)-1-hydroxyethyl]-5-(trifluoromethyl)pyridin-3-yl}oxy)ethyl]-1,2-dihydrospiro[indole-3,4′-piperidin]-2-one], the concentration for a half-maximal effect (EC50) in experiment [1] (setting [4]) was 51.5 nM; in experiment [2] (setting [5]) it was 39.6 nM; in experiment [3] (setting [6]), 10.8 nM.
For `CC(COc1ccc(C2(S(C)(=O)=O)COC2)cc1)N1CCC2(CC1)C(=O)Nc1ccc(C#N)cc12` (single isomer, unassigned) [Compound 263, (S) or (R)-1′-{1-[4-(3-methanesulfonyloxetan-3-yl)phenoxy]propan-2-yl}-2-oxo-1,2-dihydrospiro[indole-3,4′-piperidine]-5-carbonitrile], the EC50 in experiment [1] (setting [4]) is 462 nM; in experiment [2] (setting [8]) it was 320 nM; in experiment [3] (setting [9]), 95.3 nM.
In the case of `CC1(O)CN(c2ncc(OCCN3CCC4(CC3)C(=O)Nc3ccc(Cl)cc34)cn2)C1` [Compound 300, 5-chloro-1′-(2-{[2-(3-hydroxy-3-methylazetidin-1-yl)pyrimidin-5-yl]oxy}ethyl)-1,2-dihydrospiro[indole-3,4′-piperidin]-2-one], the values for the EC50 in experiment [1] (setting [7]), in experiment [2] (setting [8]) and in experiment [3] (setting [9]) were 183 nM, 543 nM and 160 nM, respectively.
For `CS(=O)(=O)c1ccc(OCCN2CCC3(CC2)C(=O)Nc2ccc(Cl)cc23)cc1C(O)CO` (stereo not drawn) [Compound 216, 5-chloro-1′-{2-[3-(1,2-dihydroxyethyl)-4-methanesulfonylphenoxy]ethyl}-1,2-dihydrospiro[indole-3,4′-piperidin]-2-one], the figures for the half-maximal effective concentration (EC50) in experiment [1] (setting [7]), in experiment [2] (setting [8]) and in experiment [3] (setting [9]) were about 1000 nM, 912 nM and 231 nM, respectively.
Take `O=C1CCc2cc(OCCN3CCC4(CC3)C(=O)Nc3ccc(Cl)cc34)cnc2N1[C@H]1C[C@@](O)(C2CC2)C1` (single isomer, unassigned) [Compound 297, 5-chloro-1′-[2-({7-oxo-8-[(trans)-3-cyclopropyl-3-hydroxycyclobutyl]-5,6,7,8-tetrahydro-1,8-naphthyridin-3-yl}oxy)ethyl]-1,2-dihydrospiro[indole-3,4′-piperidin]-2-one]: the results for the EC50 in experiment [1] (setting [7]), in experiment [2] (setting [8]) and in experiment [3] (setting [9]) were 119 nM, 85.4 nM and 31.5 nM, respectively.
In the case of `CS(=O)(=O)C1(c2ccc(OCCN3CCC4(CC3)C(=O)Nc3ccc(C(F)F)cc34)cc2)CC(O)C1` (single isomer, unassigned) [Compound 281, 5-(difluoromethyl)-1′-(2-{4-[(cis) or (trans)-3-hydroxy-1-methanesulfonylcyclobutyl]phenoxy}ethyl)-1,2-dihydrospiro[indole-3,4′-piperidin]-2-one], the EC50 is 164 nM in experiment [1] (setting [4]), 101 nM in experiment [2] (setting [5]) and 28.1 nM in experiment [3] (setting [6]).
With `CS(=O)(=O)C1(c2ncc(OCCN3CCC4(CC3)C(=O)Nc3ccc(C#N)cc34)cc2F)CC1` [Compound 283, 1′-(2-{[5-fluoro-6-(1-methanesulfonylcyclopropyl)pyridin-3-yl]oxy}ethyl)-2-oxo-1,2-dihydrospiro[indole-3,4′-piperidine]-5-carbonitrile], the EC50 in experiment [1] (setting [7]) was 211 nM; in experiment [2] (setting [8]), 235 nM; in experiment [3] (setting [9]), 71.1 nM.
For `O=C1CCc2cc(OCCN3CCC4(CC3)C(=O)Nc3ccc(Cl)cc34)ccc2N1[C@H]1C[C@H](O)C1` [Compound 224, 5-chloro-1′-[2-({2-oxo-1-[(trans)-3-hydroxycyclobutyl]-1,2,3,4-tetrahydroquinolin-6-yl}oxy)ethyl]-1,2-dihydrospiro[indole-3,4′-piperidin]-2-one] the same measures were 155 nM, 92.8 nM and 32.7 nM.
As for `CS(=O)(=O)c1ccc(OCCN2CCCC3(CC2)C(=O)Nc2ccccc23)cc1` (stereo not drawn) [Compound 26, 1-(2-(4-(methylsulfonyl)phenoxy)ethyl)spiro[azepane-4,3′-indolin]-2′-one], the EC50 is about 10900 nM in experiment [1] (setting [7]), over 4000 nM in experiment [2] (setting [8]) and over 4000 nM in experiment [3] (setting [9]).
